The results in this text go back to US20170224683A1, “TREATMENT OF MELANOMA BY BLOCKING BENZAMIL SENSITIVE ION CHANNELS/EXCHANGERS” (The Board of Trustees of the Leland Stanford Junior …, priority 2014, published 2017).

Type in all cases: cell-based
For one series, the system named is CHL1 melanoma cell line. Kind of series: MTT proliferation assay, CHL1. To be noted: 50 uM. The protocol: (§1) FIG. 3A-3D: Benzamil reduce invasion and proliferation of melanoma cell lines expressing increased Rac1GTP. […] Stimulation with Benzamil at 50 uM was not toxic, but reduced proliferation in COLO829,MM485,CHL1 melanoma cell lines similar to V12 Rac1 mutant primary melanocytes FIG. 3D.
(§2) Benzamil reduce invasion and proliferation of melanoma cell lines expressing increased Rac1GTP. […] Stimulation with Benzamil at 50 μM was not toxic, but reduced proliferation in COLO829,MM485,CHL1 melanoma cell lines similar to V12 Rac1 mutant primary melanocytes.
(§3) MTT proliferation assay. 25000 melanocytes were plated in each well in a 96 well plate, and incubated with 100 ul DMEM with 10% FBS 1% AA for 24 hours. 10 ul MTT reagent (MTT proliferation assay, ATCC, Manassas, US) was added for 4 hours, 100 ul detergent was added to each well for 2 hours., and absorbance read at 570 nm (Spectramax M5, Molecular Devices, US), normalized to cell-free control absorbance.
(In general: Formazan colour is commonly taken as a measure of viable cells.)

The test system of a further series is MM485 melanoma cell line. Kind of series: MTT proliferation assay, MM485. The settings on record: 50 uM. Here is the method:
as §1, §2, §3

For series [1], the system named is V12 Rac1 mutant primary foreskin-derived melanocytes. The series can be described thus: MTT proliferation assay, V12 Rac1 melanocytes. The protocol: FIG. 1A-1C: Benzamil inhibits V12 Rac1 driven melanocyte invasion and proliferation in vitro. […] Invasion was abolished in conditions treated with 50 uM Benzamil (FIG. 1A, FIG. 1B).
Invasion was abolished in conditions treated with 50 μM Benzamil.
as §3

Series [2] relates to COLO829 melanoma cell line. Kind of series: MTT proliferation assay, COLO829. To be noted: 50 uM. The protocol:
as §1, §2, §3

Consider `NC(=NCc1ccccc1)NC(=O)c1nc(Cl)c(N)nc1N` [Benzamil, benzyl amiloride], for which the toxicity result (in the series with CHL1 melanoma cell line; in the series with MM485 melanoma cell line; in series [2]) was “not toxic” each time. For the same compound, the “Dosage tolerated in vitro (assessed by detectable proliferation)” value in series [1] is “up to 100 uM”.
